This assay deals with T1, TET1 (TET1-CD) (Homo sapiens, UniProt Q8NFU7).
T1 construct: TET1 protein
T1 sequence (Q8NFU7 1418-2136 limits assumed): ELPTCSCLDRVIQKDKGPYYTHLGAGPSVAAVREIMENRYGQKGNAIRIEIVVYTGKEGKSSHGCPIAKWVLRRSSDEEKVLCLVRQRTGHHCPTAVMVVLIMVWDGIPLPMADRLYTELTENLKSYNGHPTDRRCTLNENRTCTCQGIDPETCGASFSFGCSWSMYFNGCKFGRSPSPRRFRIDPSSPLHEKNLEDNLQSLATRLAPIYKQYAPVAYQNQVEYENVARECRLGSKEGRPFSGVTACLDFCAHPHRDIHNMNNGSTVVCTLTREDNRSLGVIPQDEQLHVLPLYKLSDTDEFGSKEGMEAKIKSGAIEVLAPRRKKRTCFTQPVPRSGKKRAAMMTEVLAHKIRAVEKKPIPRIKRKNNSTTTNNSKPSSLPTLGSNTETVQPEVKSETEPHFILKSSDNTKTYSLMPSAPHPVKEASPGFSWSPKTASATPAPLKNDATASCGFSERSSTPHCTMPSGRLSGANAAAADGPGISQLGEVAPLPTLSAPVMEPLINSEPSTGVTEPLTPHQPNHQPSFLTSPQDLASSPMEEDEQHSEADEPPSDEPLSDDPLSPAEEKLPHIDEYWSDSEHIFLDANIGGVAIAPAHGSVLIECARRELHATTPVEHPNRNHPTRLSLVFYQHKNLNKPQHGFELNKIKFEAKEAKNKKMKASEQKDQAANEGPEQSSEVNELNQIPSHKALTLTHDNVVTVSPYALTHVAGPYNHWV
Nature of the assay: SPR competition against auranofin. The format is binding. To be noted: competes with auranofin, 2-OG analogue.

1 molecule from PMC10666452, “Direct inhibition of dioxygenases TET1 by the rheumatoid arthritis drug auranofin selectively induces cancer cell death in T-ALL” (Journal of Hematology & Oncology, 2023) can be followed below.

Consider `O=C(O)CNC(=O)C(=O)O` [NOG], for which the “SPR competition against auranofin” value was “both NOG and Fe (II) compete with auranofin for binding to TET1-CD”.
